Reference: the supplement of paper PMC10307832

Experiments:
Assay in all cases: relative viability (nuclei count vs DMSO), 5 days (fraction); higher = more cells survive
Salubrinal + Decitabine = compound: O=C(/C=C/c1ccccc1)NC(NC(=S)Nc1cccc2cccnc12)C(Cl)(Cl)Cl [Salubrinal] + Nc1ncn([C@H]2C[C@H](O)[C@@H](CO)O2)c(=O)n1 [Decitabine] (partner 2 µM)
Outline: (§1)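 Medians of duplicate plates are given as relative viability. That measure is the nuclei count in treated wells divided by the count in vehicle wells. Counts were taken on 4× images of lung cancer cell lines in 1536-well plates, 5 days after pin-tool dosing the day after seeding with one drug alone or a fixed anchor-drug dose plus five library-drug doses (not always all listed) in √10 steps.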

[1] = compound: Cc1ccc2nc(NCCN)c3ncc(C)n3c2c1 + CCNC(=O)c1noc(-c2cc(C(C)C)c(O)cc2O)c1-c1ccc(CN2CCOCC2)cc1 [Luminespib] (partner 0.01 µM)
Outline: as §1

Salubrinal + Trametinib = compound: O=C(/C=C/c1ccccc1)NC(NC(=S)Nc1cccc2cccnc12)C(Cl)(Cl)Cl [Salubrinal] + CC(=O)Nc1cccc(-n2c(=O)n(C3CC3)c(=O)c3c(Nc4ccc(I)cc4F)n(C)c(=O)c(C)c32)c1 [Trametinib] (partner 0.02 µM)
Outline: as §1

Salubrinal + Linsitinib = compound: O=C(/C=C/c1ccccc1)NC(NC(=S)Nc1cccc2cccnc12)C(Cl)(Cl)Cl [Salubrinal] + C[C@]1(O)C[C@@H](c2nc(-c3ccc4ccc(-c5ccccc5)nc4c3)c3c(N)nccn32)C1 [Linsitinib] (partner 1 µM)
Outline: as §1

## NCI-H1915
Salubrinal + Decitabine; first compound 0.08 µM
  relative viability: 0.249
Salubrinal + Decitabine; first compound 0.8 µM
  relative viability: 0.268
Salubrinal + Decitabine; first compound 2.53 µM
  relative viability: 0.248
Salubrinal + Decitabine; first compound 8 µM
  relative viability: 0.246
[1]; first compound 0.04 µM
  relative viability: 0.721
[1]; first compound 0.1265 µM
  relative viability: 0.783
[1]; first compound 1.265 µM
  relative viability: 0.598
[1]; first compound 4 µM
  relative viability: 0.636
Salubrinal + Trametinib; first compound 0.08 µM
  relative viability: 0.219
Salubrinal + Trametinib; first compound 0.8 µM
  relative viability: 0.583
Salubrinal + Trametinib; first compound 2.53 µM
  relative viability: 0.314
Salubrinal + Trametinib; first compound 8 µM
  relative viability: 0.311
Salubrinal + Linsitinib; first compound 0.08 µM
  relative viability: 1.02
Salubrinal + Linsitinib; first compound 0.253 µM
  relative viability: 1.06
Salubrinal + Linsitinib; first compound 0.8 µM
  relative viability: 1.16
Salubrinal + Linsitinib; first compound 2.53 µM
  relative viability: 1.1
Salubrinal + Linsitinib; first compound 8 µM
  relative viability: 1.13

## NCI-H1944
Salubrinal + Decitabine; first compound 0.08 µM
  relative viability: 0.445
Salubrinal + Decitabine; first compound 0.253 µM
  relative viability: 0.452
Salubrinal + Decitabine; first compound 0.8 µM
  relative viability: 0.43
Salubrinal + Decitabine; first compound 2.53 µM
  relative viability: 0.476
Salubrinal + Decitabine; first compound 8 µM
  relative viability: 0.428
[1]; first compound 0.04 µM
  relative viability: 0.735
[1]; first compound 0.1265 µM
  relative viability: 0.735
[1]; first compound 0.4 µM
  relative viability: 0.663
[1]; first compound 1.265 µM
  relative viability: 0.817
[1]; first compound 4 µM
  relative viability: 0.844
Salubrinal + Trametinib; first compound 0.08 µM
  relative viability: 0.451
Salubrinal + Trametinib; first compound 0.253 µM
  relative viability: 0.448
Salubrinal + Trametinib; first compound 0.8 µM
  relative viability: 0.403
Salubrinal + Trametinib; first compound 2.53 µM
  relative viability: 0.399
Salubrinal + Trametinib; first compound 8 µM
  relative viability: 0.374
Salubrinal + Linsitinib; first compound 0.08 µM
  relative viability: 1.28
Salubrinal + Linsitinib; first compound 0.253 µM
  relative viability: 1.23
Salubrinal + Linsitinib; first compound 0.8 µM
  relative viability: 1.34
Salubrinal + Linsitinib; first compound 2.53 µM
  relative viability: 1.17
Salubrinal + Linsitinib; first compound 8 µM
  relative viability: 1.15

## NCI-H1975
Salubrinal + Decitabine; first compound 0.08 µM
  relative viability: 0.315
Salubrinal + Decitabine; first compound 0.253 µM
  relative viability: 0.357
Salubrinal + Decitabine; first compound 0.8 µM
  relative viability: 0.351
Salubrinal + Decitabine; first compound 2.53 µM
  relative viability: 0.389
Salubrinal + Decitabine; first compound 8 µM
  relative viability: 0.366
[1]; first compound 0.04 µM
  relative viability: 0.224
[1]; first compound 0.1265 µM
  relative viability: 0.243
[1]; first compound 0.4 µM
  relative viability: 0.326
[1]; first compound 1.265 µM
  relative viability: 0.116
[1]; first compound 4 µM
  relative viability: 0.153
Salubrinal + Trametinib; first compound 0.08 µM
  relative viability: 0.281
Salubrinal + Trametinib; first compound 0.253 µM
  relative viability: 0.309
Salubrinal + Trametinib; first compound 0.8 µM
  relative viability: 0.36
Salubrinal + Trametinib; first compound 2.53 µM
  relative viability: 0.376
Salubrinal + Trametinib; first compound 8 µM
  relative viability: 0.312
Salubrinal + Linsitinib; first compound 0.08 µM
  relative viability: 1.1
Salubrinal + Linsitinib; first compound 0.253 µM
  relative viability: 0.735
Salubrinal + Linsitinib; first compound 0.8 µM
  relative viability: 1.17
Salubrinal + Linsitinib; first compound 2.53 µM
  relative viability: 0.988
Salubrinal + Linsitinib; first compound 8 µM
  relative viability: 0.946

## NCI-H1993
Salubrinal + Decitabine; first compound 0.08 µM
  relative viability: 0.567
Salubrinal + Decitabine; first compound 0.253 µM
  relative viability: 0.662
Salubrinal + Decitabine; first compound 0.8 µM
  relative viability: 0.593
Salubrinal + Decitabine; first compound 8 µM
  relative viability: 0.59
[1]; first compound 0.04 µM
  relative viability: 1.01
[1]; first compound 0.1265 µM
  relative viability: 0.944
[1]; first compound 0.4 µM
  relative viability: 0.902
[1]; first compound 1.265 µM
  relative viability: 0.887
[1]; first compound 4 µM
  relative viability: 0.859
Salubrinal + Trametinib; first compound 0.08 µM
  relative viability: 0.506
Salubrinal + Trametinib; first compound 0.253 µM
  relative viability: 0.614
Salubrinal + Trametinib; first compound 0.8 µM
  relative viability: 0.503
Salubrinal + Trametinib; first compound 8 µM
  relative viability: 0.616
Salubrinal + Linsitinib; first compound 0.08 µM
  relative viability: 0.757
Salubrinal + Linsitinib; first compound 0.253 µM
  relative viability: 0.722
Salubrinal + Linsitinib; first compound 0.8 µM
  relative viability: 0.775
Salubrinal + Linsitinib; first compound 2.53 µM
  relative viability: 0.805
Salubrinal + Linsitinib; first compound 8 µM
  relative viability: 0.816

## NCI-H2009
Salubrinal + Decitabine; first compound 0.08 µM
  relative viability: 0.414
Salubrinal + Decitabine; first compound 0.253 µM
  relative viability: 0.396
Salubrinal + Decitabine; first compound 0.8 µM
  relative viability: 0.426
Salubrinal + Decitabine; first compound 2.53 µM
  relative viability: 0.384
Salubrinal + Decitabine; first compound 8 µM
  relative viability: 0.384
[1]; first compound 0.04 µM
  relative viability: 1.03
[1]; first compound 0.1265 µM
  relative viability: 1
[1]; first compound 0.4 µM
  relative viability: 1.05
[1]; first compound 1.265 µM
  relative viability: 1.01
[1]; first compound 4 µM
  relative viability: 0.792
Salubrinal + Trametinib; first compound 0.08 µM
  relative viability: 0.345
Salubrinal + Trametinib; first compound 0.253 µM
  relative viability: 0.262
Salubrinal + Trametinib; first compound 0.8 µM
  relative viability: 0.271
Salubrinal + Trametinib; first compound 2.53 µM
  relative viability: 0.287
Salubrinal + Trametinib; first compound 8 µM
  relative viability: 0.222
Salubrinal + Linsitinib; first compound 0.08 µM
  relative viability: 1.16
Salubrinal + Linsitinib; first compound 0.253 µM
  relative viability: 1.17
Salubrinal + Linsitinib; first compound 0.8 µM
  relative viability: 1.28
Salubrinal + Linsitinib; first compound 2.53 µM
  relative viability: 1.2
Salubrinal + Linsitinib; first compound 8 µM
  relative viability: 1.14

## NCI-H2023
Salubrinal + Decitabine; first compound 0.08 µM
  relative viability: 0.238
Salubrinal + Decitabine; first compound 0.253 µM
  relative viability: 0.219
Salubrinal + Decitabine; first compound 0.8 µM
  relative viability: 0.236
Salubrinal + Decitabine; first compound 2.53 µM
  relative viability: 0.246
Salubrinal + Decitabine; first compound 8 µM
  relative viability: 0.221
[1]; first compound 0.04 µM
  relative viability: 0.782
[1]; first compound 0.1265 µM
  relative viability: 0.68
[1]; first compound 0.4 µM
  relative viability: 0.764
[1]; first compound 1.265 µM
  relative viability: 0.782
[1]; first compound 4 µM
  relative viability: 0.264
Salubrinal + Trametinib; first compound 0.08 µM
  relative viability: 0.601
Salubrinal + Trametinib; first compound 0.253 µM
  relative viability: 0.617
Salubrinal + Trametinib; first compound 0.8 µM
  relative viability: 0.509
Salubrinal + Trametinib; first compound 2.53 µM
  relative viability: 0.447
Salubrinal + Trametinib; first compound 8 µM
  relative viability: 0.416
Salubrinal + Linsitinib; first compound 0.08 µM
  relative viability: 0.707
Salubrinal + Linsitinib; first compound 0.253 µM
  relative viability: 0.573
Salubrinal + Linsitinib; first compound 0.8 µM
  relative viability: 0.676
Salubrinal + Linsitinib; first compound 2.53 µM
  relative viability: 0.777
Salubrinal + Linsitinib; first compound 8 µM
  relative viability: 0.706

## NCI-H2085
Salubrinal + Decitabine; first compound 0.08 µM
  relative viability: 0.521
Salubrinal + Decitabine; first compound 0.253 µM
  relative viability: 0.583
Salubrinal + Decitabine; first compound 0.8 µM
  relative viability: 0.564
Salubrinal + Decitabine; first compound 2.53 µM
  relative viability: 0.508
Salubrinal + Decitabine; first compound 8 µM
  relative viability: 0.643
[1]; first compound 0.04 µM
  relative viability: 0.492
[1]; first compound 0.1265 µM
  relative viability: 0.463
[1]; first compound 0.4 µM
  relative viability: 0.446
[1]; first compound 1.265 µM
  relative viability: 0.442
[1]; first compound 4 µM
  relative viability: 0.393
Salubrinal + Trametinib; first compound 0.08 µM
  relative viability: 0.632
Salubrinal + Trametinib; first compound 0.253 µM
  relative viability: 0.539
Salubrinal + Trametinib; first compound 0.8 µM
  relative viability: 0.617
Salubrinal + Trametinib; first compound 2.53 µM
  relative viability: 0.52
Salubrinal + Trametinib; first compound 8 µM
  relative viability: 0.487
Salubrinal + Linsitinib; first compound 0.08 µM
  relative viability: 1.03
Salubrinal + Linsitinib; first compound 0.253 µM
  relative viability: 0.754
Salubrinal + Linsitinib; first compound 0.8 µM
  relative viability: 0.896
Salubrinal + Linsitinib; first compound 2.53 µM
  relative viability: 0.787
Salubrinal + Linsitinib; first compound 8 µM
  relative viability: 0.868

## NCI-H2087
Salubrinal + Decitabine; first compound 0.08 µM
  relative viability: 0.448
Salubrinal + Decitabine; first compound 0.253 µM
  relative viability: 0.266
Salubrinal + Decitabine; first compound 0.8 µM
  relative viability: 0.295
Salubrinal + Decitabine; first compound 2.53 µM
  relative viability: 0.277
Salubrinal + Decitabine; first compound 8 µM
  relative viability: 0.257
[1]; first compound 0.04 µM
  relative viability: 0.214
[1]; first compound 0.1265 µM
  relative viability: 0.2
[1]; first compound 0.4 µM
  relative viability: 0.152
[1]; first compound 1.265 µM
  relative viability: 0.267
[1]; first compound 4 µM
  relative viability: 0.162
Salubrinal + Trametinib; first compound 0.08 µM
  relative viability: 0.201
Salubrinal + Trametinib; first compound 0.253 µM
  relative viability: 0.191
Salubrinal + Trametinib; first compound 0.8 µM
  relative viability: 0.181
Salubrinal + Trametinib; first compound 2.53 µM
  relative viability: 0.186
Salubrinal + Trametinib; first compound 8 µM
  relative viability: 0.207
Salubrinal + Linsitinib; first compound 0.08 µM
  relative viability: 1.01
Salubrinal + Linsitinib; first compound 0.253 µM
  relative viability: 0.942
Salubrinal + Linsitinib; first compound 0.8 µM
  relative viability: 0.98
Salubrinal + Linsitinib; first compound 2.53 µM
  relative viability: 0.782
Salubrinal + Linsitinib; first compound 8 µM
  relative viability: 1.02

## NCI-H2126
Salubrinal + Decitabine; first compound 0.08 µM
  relative viability: 0.605
Salubrinal + Decitabine; first compound 0.253 µM
  relative viability: 0.547
Salubrinal + Decitabine; first compound 0.8 µM
  relative viability: 0.589
Salubrinal + Decitabine; first compound 2.53 µM
  relative viability: 0.563
Salubrinal + Decitabine; first compound 8 µM
  relative viability: 0.559
[1]; first compound 0.04 µM
  relative viability: 0.998
[1]; first compound 0.1265 µM
  relative viability: 0.867
[1]; first compound 0.4 µM
  relative viability: 0.917
[1]; first compound 1.265 µM
  relative viability: 0.89
[1]; first compound 4 µM
  relative viability: 0.832
Salubrinal + Trametinib; first compound 0.08 µM
  relative viability: 0.592
Salubrinal + Trametinib; first compound 0.253 µM
  relative viability: 0.579
Salubrinal + Trametinib; first compound 0.8 µM
  relative viability: 0.544
Salubrinal + Trametinib; first compound 2.53 µM
  relative viability: 0.576
Salubrinal + Trametinib; first compound 8 µM
  relative viability: 0.513
Salubrinal + Linsitinib; first compound 0.08 µM
  relative viability: 0.716
Salubrinal + Linsitinib; first compound 0.253 µM
  relative viability: 0.707
Salubrinal + Linsitinib; first compound 0.8 µM
  relative viability: 0.748
Salubrinal + Linsitinib; first compound 2.53 µM
  relative viability: 0.693
Salubrinal + Linsitinib; first compound 8 µM
  relative viability: 0.689
